# Reference: ChEMBL document CHEMBL3046572, “Synthesis and evaluation of antibacterial and antitubercular activities of some novel imidazo[2,1-b][1,3,4]thiadiazole derivatives” (2013)
# Legend:
# Type in all cases: functional
# [1] = test system: Mycobacterium tuberculosis; experiment: Antitubercular activity against Mycobacterium tuberculosis H37Rv assessed as growth inhibition after 5 days by microplate alamar blue assay; conditions: 120 h
# Staphylococcus aureus = experiment: Antibacterial activity against Staphylococcus aureus assessed as growth inhibition after 18 hr by broth microdilution method
# Bacillus subtilis = experiment: Antibacterial activity against Bacillus subtilis assessed as growth inhibition after 18 hr by broth microdilution method
# Escherichia coli = experiment: Antibacterial activity against Escherichia coli assessed as growth inhibition after 18 hr by broth microdilution method
# Vibrio cholerae = experiment: Antibacterial activity against Vibrio cholerae assessed as growth inhibition after 18 hr by broth microdilution method
SMILES,MIC [1] [µg/mL],MIC (Staphylococcus aureus) [µg/mL],MIC (Bacillus subtilis) [µg/mL],MIC (Escherichia coli) [µg/mL],MIC (Vibrio cholerae) [µg/mL]
NC(=O)c1cnccn1 [PYRAZINAMIDE],3.12,,,,
CCn1cc(C(=O)O)c(=O)c2cc(F)c(N3CCNCC3)cc21 [NORFLOXACIN],,2,2,16,1
CCN(CC)c1ccc2cc(-c3nc4sc(S(N)(=O)=O)nn4c3CN3CCCCC3)c(=O)oc2c1,25,62.5,62.5,31.2,31.2
CCN(CC)c1ccc2cc(-c3nc4sc(S(=O)(=O)/N=C/N(C)C)nn4c3C3SCC(=O)N3c3ccccc3)c(=O)oc2c1 (stereo unspecified),0.8,16,16,1,1
CCN(CC)c1ccc2cc(-c3nc4sc(S(N)(=O)=O)nn4c3CN3CCOCC3)c(=O)oc2c1,25,62.5,62.5,31.2,31.2
CCN(CC)c1ccc2cc(-c3nc4sc(S(N)(=O)=O)nn4c3SC#N)c(=O)oc2c1,12.5,62.5,62.5,31.2,31.2
CCN(CC)c1ccc2cc(-c3nc4sc(S(N)(=O)=O)nn4c3N=O)c(=O)oc2c1,50,125,125,31.2,31.2
CCN(CC)c1ccc2cc(-c3nc4sc(S(=O)(=O)/N=C/N(C)C)nn4c3/C=N/NC(=N)N)c(=O)oc2c1,0.8,16,16,1,1
CCN(CC)c1ccc2cc(-c3nc4sc(S(=O)(=O)/N=C/N(C)C)nn4c3CO)c(=O)oc2c1,3.12,31.2,31.2,8,8
CCN(CC)c1ccc2cc(-c3nc4sc(S(=O)(=O)/N=C/N(C)C)nn4c3C=O)c(=O)oc2c1,1.6,16,16,4,4
CCN(CC)c1ccc2cc(-c3nc4sc(S(=O)(=O)/N=C/N(C)C)nn4c3/C=N/O)c(=O)oc2c1,25,62.5,62.5,16,16
CN[C@@H]1[C@H](O[C@H]2[C@H](O[C@H]3[C@H](O)[C@@H](O)[C@H](N=C(N)N)[C@@H](O)[C@@H]3N=C(N)N)O[C@@H](C)[C@]2(O)C=O)O[C@@H](CO)[C@H](O)[C@H]1O [STREPTOMYCIN],6.25,,,,
CCN(CC)c1ccc2cc(-c3nc4sc(S(=O)(=O)/N=C/N(C)C)nn4c3C#N)c(=O)oc2c1,25,62.5,62.5,16,16
CCN(CC)c1ccc2cc(-c3nc4sc(S(N)(=O)=O)nn4c3Br)c(=O)oc2c1,6.25,62.5,62.5,16,16
CCN(CC)c1ccc2cc(-c3cn4nc(S(N)(=O)=O)sc4n3)c(=O)oc2c1,3.12,62.5,62.5,31.2,31.2
CCN(CC)c1ccc2cc(-c3nc4sc(S(N)(=O)=O)nn4c3CN3CCCC3)c(=O)oc2c1,25,62.5,62.5,8,8
